Results on 9 compounds are retold here after PMC5862601 (Oncotarget, 2018).

The target of test [1] is T1, human A2AAR (Homo sapiens, UniProt P29274).
T1 construct: expressed in transfected cells
Nature of the test: cAMP accumulation assay in CHO-A2A cells. Type of test: cell-based. How it is done: (§1) The determination of cAMP accumulation in recombinant CHO and in Jurkat-T cells was performed as previously described.
(cAMP levels reflect the balance of adenylyl cyclase and phosphodiesterase activity.)

The subject of test [2] is HEK293 (native) cells, A2B ≥ A2A. The note with it: cited from earlier work.
Test [3] addresses T2, A2A and A2BARs natively expressed in Jurkat-T cells (Homo sapiens, UniProt P29274+P29275). Further details: method as in ref [15] (a number printed in a supplementary file, which may have a reference list of its own: not looked up in the article's list). The note with it: cAMP accumulation, up to 10 µM, ref [15]; cited from earlier work.
Test [4] concerns the target T3, human A2AAR and A2BAR in HEK293T cells (Homo sapiens, UniProt P29274+P29275).
T3 construct: expressed in transfected cells; host or cells: HEK293T
Briefly: Dynamic mass redistribution (DMR) assay in HEK293T cells transfected with A2A and A2BAR cDNA. The test is classed as cell-based. As to conditions: 100 nM agonist.
Description: In brief, 24 h before the assay, cells were seeded at a density of 7,500 cells per well in 384-well sensor microplates with 40 µl of growth medium and cultured for 24 h (37° C, 5 % CO2) to obtain 70–80% confluent monolayers. […] Hereafter, the sensor plate was scanned and a baseline optical signature was recorded before adding 10 µl of test compound dissolved in assay buffer containing 0.1% DMSO and DMR responses were monitored for at least 8,000 s using an EnSpire® Multimode Plate Reader (PerkinElmer, Waltham, MA, USA) by a label-free technology. Data were analyzed using EnSpire Workstation Software v 4.10.

In the next test the test system is HEK-A2B cells, A2B ≥ A2A. As to conditions: cited from earlier work.
The target of test [5] is T4, human A2BAR (Homo sapiens, UniProt P29275).
T4 sequence (P29275 1-332): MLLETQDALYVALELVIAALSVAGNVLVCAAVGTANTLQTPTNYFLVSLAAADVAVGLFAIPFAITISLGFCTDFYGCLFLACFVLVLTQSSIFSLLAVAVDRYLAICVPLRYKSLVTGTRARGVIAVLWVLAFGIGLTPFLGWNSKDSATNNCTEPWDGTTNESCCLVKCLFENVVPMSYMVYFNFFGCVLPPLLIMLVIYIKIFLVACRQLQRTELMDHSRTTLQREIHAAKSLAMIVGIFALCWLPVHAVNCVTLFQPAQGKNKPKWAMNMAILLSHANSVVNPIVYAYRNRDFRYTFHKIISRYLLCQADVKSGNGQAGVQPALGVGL
Further details: expressed in transfected cells. As to conditions: vs [3H]PSB-603 (0.3 nM); A2BAR expressing HEK or CHO membranes; ref [14]; read-out: Ki ± SEM; cited from earlier work.

For test [6], the system named is T24 human bladder carcinoma cells. The note with it: T24 human bladder carcinoma, cited from earlier work.
Test [7] relates to Human prostatic carcinoma cells PC-3. More on the design: method as in Wei Q, et al. Purinergic Signal. 2013; 9: 271-280. [23]. The note with it: et al. Purinergic Signal. 2013, 9: 271-280. [23], cited from earlier work.
For test [8], the target named is T3, human A2AAR and A2BAR in HEK293T cells. Briefly: cAMP assay at HEK-A2A cells transiently transfected with increasing amounts of A2BAR. The test is classed as cell-based. As to conditions: 100 nM agonist, A2BAR cDNA 0.25–1.5 µg.
Description: HEK293T cells were transiently transfected with the corresponding cDNA (pcDNA3.1+-hA2B, pcDNA3.1+-hA2A) by the polyethylenimine (Sigma) method [62]. The determination of AR-induced cAMP accumulation in HEK293T cells transiently expressing A2A and A2BARs was performed as previously described [62].
In test [9] the target is T5, A2BARs in Jurkat-T cell membranes (Homo sapiens, UniProt P29275).
T5 construct: Human Jurkat-T cells natively expressing A2A and A2BARs; endogenous in cells; host or cells: Jurkat-T
Type of test: binding. As to conditions: vs [3H]PSB-603 (0.3 nM); Jurkat-T cells, A2B ≥ A2A; read-out: Ki ± SEM.
Description: The preparation of Jurkat-T cell membranes was performed as follows: a Jurkat-T cell suspension was centrifuged in 50 ml falcon tubes at 200 g, 4° C, 5 min. The supernatant was discarded and the cell pellets were quickly frozen at –80° C. The defrosted pellets were then resuspended in ice-cold 25 mM Tris-buffer, 0.32 M sucrose, 1 mM ethylenediaminetetraacetic acid (EDTA), 0.1 mM phenylmethanesulfonylfluoride (PMSF), pH 7.4, and homogenized with an Ultra-Turrax (30 s on ice). The homogenate was centrifuged for 10 min at 1000 g at 4° C. The resulting pellets were discarded and the supernatant was centrifuged for 1 h at 48.000 g at 4° C. Pellets containing the membranes were resuspended in aqua bidest., homogenized with an Ultra-Turrax (30 s on ice) and centrifuged under the same conditions. The supernantant was discarded and the pellets were resuspended in 50 mM Tris-buffer, pH 7.4 and homogenized with a glass Teflon homogenizer on ice. The resuspended and homogenzied pellets were aliquoted and stored at –80° C until use.
After an incubation time of 60 min at rt, the assay mixture was filtered through GF/B glass fiber filters. Washing buffer: 50 mM Tris-HCl buffer, 0.1% bovine serum albumin (BSA), pH 7.4.

In test [10] the target is T6, A2BARs in HeLa cell membranes (Homo sapiens, UniProt P29275).
T6 construct: HeLa cells natively expressing human A2A and A2BARs; endogenous in cells; host or cells: HeLa
Type of test: binding. The note with it: vs [3H]PSB-603 (0.3 nM); HeLa cells, A2B ≥ A2A; read-out: Ki ± SEM.
Description: (§4) The preparations of CHO and HeLa membranes recombinantly (or natively) expressing human A2A and/or A2BAR subtypes were performed as previously described [5]. Membranes from HEK-A2B or A2A cells, which were used for some of the radioligand competition binding studies, were purchased from Perkin Elmer (Waltham, USA). […] The protein content of all membrane preparations was determined with the Lowry method [58].

For test [11], the target named is T4, human A2BAR. More on the design: expressed in transfected cells. The note with it: cAMP accumulation; CHO-A2B; ref [13]; cited from earlier work.
Test [12] has as its system prostate cancer cell lines (A2B > A2A). The note with it: three prostate cancer cell lines (A2B > A2A); ref [13]; cited from earlier work.
Test [13] concerns the target T4, human A2BAR. Nature of the test: biochemical.
Description: as §4
In test [14] the target is T1, human A2AAR. The note with it: vs [3H]MSX-2 (1 nM), A2AAR expressing HEK or CHO membranes, read-out: Ki ± SEM, cited from earlier work.
The target of test [15] is T1, human A2AAR. Type of test: binding.
Description: The preparations of CHO and HeLa membranes recombinantly (or natively) expressing human A2A and/or A2BAR subtypes were performed as previously described [5]. Membranes from HEK-A2B or A2A cells, which were used for some of the radioligand competition binding studies, were purchased from Perkin Elmer (Waltham, USA). The preparation of Jurkat-T cell membranes was performed as follows: a Jurkat-T cell suspension was centrifuged in 50 ml falcon tubes at 200 g, 4° C, 5 min. The supernatant was discarded and the cell pellets were quickly frozen at –80° C. The defrosted pellets were then resuspended in ice-cold 25 mM Tris-buffer, 0.32 M sucrose, 1 mM ethylenediaminetetraacetic acid (EDTA), 0.1 mM phenylmethanesulfonylfluoride (PMSF), pH 7.4, and homogenized with an Ultra-Turrax (30 s on ice). The homogenate was centrifuged for 10 min at 1000 g at 4° C. The resulting pellets were discarded and the supernatant was centrifuged for 1 h at 48.000 g at 4° C. Pellets containing the membranes were resuspended in aqua bidest., homogenized with an Ultra-Turrax (30 s on ice) and centrifuged under the same conditions. The supernantant was discarded and the pellets were resuspended in 50 mM Tris-buffer, pH 7.4 and homogenized with a glass Teflon homogenizer on ice. […] The protein content of all membrane preparations was determined with the Lowry method [58].
Test [16] has as its target T4, human A2BAR. Briefly: cell-based. How it is done:
as §1

Test [17] concerns the target T2, A2A and A2BARs natively expressed in Jurkat-T cells. As to conditions: read-out: KB-value ± SEM, cAMP accumulation, antagonist potency versus NECA. As to the method: as §1
Test [18] deals with isolated perfused mouse heart. The note with it: A2B knockout vs wildtype mice, ref [51]; cited from earlier work.
Test [19] has as its system CHO-K1 cell membranes (non-transfected). Briefly: Radioligand affinity (saturation or homologous competition) at CHO cells. The test is classed as binding, Chinese hamster. As to the method:
(§2) Radioligand receptor binding experiments at membrane preparation of native (HeLa) and recombinant cells (CHO- or HEK cells recombinantly expressing A2A and/or A2BARs) using the A2B-selective antagonist radioligand [³H]PSB-603 (spec. activity: 79 Ci/mmol) to detect A2BARs were performed as previously described. Competition binding experiments at various membrane preparations of native (HeLa, Jurkat-T) and recombinant cells (CHO or HEK cells expressing A2A and/or A2BARs) using the A2A-selective antagonist radioligand [^3H]MSX-2 (spec. activity: 85 Ci/mmol) to detect A2AARs were performed in analogy to described procedures. […] Non-specific binding was determined in the presence of unlabeled MSX-2, or CGS-15943, respectively (10 µM), both giving identical results.
(§3) The assay was performed in a final volume of 400 µl containing 4 µl of test compound dissolved in DMSO, 196 µl buffer (50 mM Tris-HCl, 10 mM MgCl2 pH 7.4), 100 µl of radioligand solution in the same buffer (5 nM), and 100 µl of membrane preparation (10 to 200 µg of protein per vial, 2 U/ml ADA 20 min incubation at rt). […] All data were analyzed with GraphPad Prism, Version 4 (GraphPad Inc., La Jolla, CA).

Test [20] deals with T1, human A2AAR. Nature of the test: Radioligand affinity at HEK or CHO-A2A. The test is classed as binding. As to conditions: saturation. As to the method:
as §2, §3

The target in the next test is T7, HA-tagged human A2AAR (Homo sapiens, UniProt P29274).
T7 construct: HA; expressed in transfected cells
T7 sequence (P29274 whole entry): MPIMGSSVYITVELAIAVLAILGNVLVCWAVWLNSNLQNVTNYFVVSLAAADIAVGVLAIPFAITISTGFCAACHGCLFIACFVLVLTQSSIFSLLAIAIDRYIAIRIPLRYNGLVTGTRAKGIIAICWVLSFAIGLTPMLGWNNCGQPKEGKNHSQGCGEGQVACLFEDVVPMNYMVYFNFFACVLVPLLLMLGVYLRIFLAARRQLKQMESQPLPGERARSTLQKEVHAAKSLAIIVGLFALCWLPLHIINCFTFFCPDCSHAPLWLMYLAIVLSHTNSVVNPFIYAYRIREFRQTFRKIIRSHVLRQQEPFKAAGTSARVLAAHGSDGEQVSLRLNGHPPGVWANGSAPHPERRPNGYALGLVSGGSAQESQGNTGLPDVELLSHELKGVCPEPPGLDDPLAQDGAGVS
Briefly: Radioligand affinity at CHO-HA-A2A. The test is classed as binding. The note with it: homologous competition.

The target in test [21] is T8, A2A and A2BARs in Jurkat-T cell membranes (Homo sapiens, UniProt P29274+P29275).
T8 construct: Human Jurkat-T cells natively expressing A2A and A2BARs; endogenous in cells; host or cells: Jurkat-T
T8 sequence (P29274 whole entry, one chain of several): as the sequence (P29274 whole entry) above
Briefly: Radioligand affinity at Jurkat-T cells (A2B ≥ A2A). Type of test: binding. As to conditions: homologous competition. As to the method: as §2
The assay was performed in a final volume of 400 µl containing 4 µl of test compound dissolved in DMSO, 196 µl buffer (50 mM Tris-HCl, 10 mM MgCl2 pH 7.4), 100 µl of radioligand solution in the same buffer (5 nM), and 100 µl of membrane preparation (10 to 200 µg of protein per vial, 2 U/ml ADA 20 min incubation at rt). […] All data were analyzed with GraphPad Prism, Version 4 (GraphPad Inc., La Jolla, CA). […]

The target in test [22] is T4, human A2BAR. More on the design: expressed in transfected cells; method as in ref [12] (a number printed in a supplementary file, which may have a reference list of its own: not looked up in the article's list). The note with it: HEK or CHO-A2B (A2B); saturation; ref [12]; read-out: KD ± SEM; cited from earlier work.
The target of test [23] is T9, A2A and A2BARs in HeLa cell membranes (Homo sapiens, UniProt P29274+P29275).
T9 construct: HeLa cells natively expressing human A2A and A2BARs; endogenous in cells; host or cells: HeLa
T9 sequence (P29274 whole entry, one chain of several): as the sequence (P29274 whole entry) above
Nature of the test: Radioligand affinity at HeLa cells (A2B ≥ A2A). Type of test: binding. The note with it: homologous competition, read-out: KD ± SEM. As to the method:
as §2, §3

Test [24] concerns the target A2A and A2BARs in intact primary human lymphocytes. Briefly: Radioligand affinity at intact primary human T-lymphocytes, stimulated with phytohemagglutinin. Type of test: binding. The note with it: T-Lymphocytes stimulated (A2A > A2B); intact cells; homologous competition; read-out: KD ± SEM.
The target is the same in test [25]. Briefly: Radioligand affinity at intact primary human T-lymphocytes, unstimulated. The test is classed as binding. As to conditions: T-Lymphocytes unstimulated (A2A > A2B), intact cells, homologous competition.
Where [26] appears, read: ref Gao Z, et al. Biochem Pharmacol. 2014, 90: 297-306. [17].
The mark [27] stands for this setting: ref Hinz S, et al. J Pharmacol Exp Ther. 2014, 3: 427-436. [15].
Where [28] appears, read: ref Cooper J, et al. Br J Pharmacol. 1997, 122: 546-550. [18].
The mark [29] stands for this setting: ref Phelps PT, et al. Eur J Pharmacol. 2006, 536: 28-37. [20].

Each structure is given as a SMILES string. Read-outs that look alike come from different tables or passages of the source.

T1 sequence (P29274 whole entry): as above
T3 sequence (P29274 whole entry, one chain of several): as the sequence (P29274 whole entry) above
T2 sequence (P29274 whole entry, one chain of several): as the sequence (P29274 whole entry) above

As to `N#Cc1c(N)nc(SCC(N)=O)c(C#N)c1-c1ccc(OCC2CC2)cc1` [BAY60-6583], the EC50 (usually the concentration at which the effect is half-maximal) at human A2AAR [1] (cAMP accumulation, CHO-A2A) was over 10000 nM; in [2] (setting [26]) it was 296 nM; with HEK-A2B cells, A2B ≥ A2A (setting [26]) it was 6.14 nM; in the test with HEK-A2B cells, A2B ≥ A2A (setting [27]), 505 nM; in test [6] (setting [26]), 43 nM; in test [7] (ref Wei Q), 7.2 nM. For the same compound, the EC50 on human A2BAR [11] is 165 nM. Also, in test [3], the “EC50 (result in words)” value is on record as “low signal”. Also, the “change in DMR signal with increasing amounts of transiently transfected A2BAR” value in test [4] is recorded as “time-dependent increase in the signal”. Further, the Ki (in general, the equilibrium dissociation constant of an inhibitor or competing ligand from its target) is 212 ± 20 nM on human A2BAR [5], 2960 nM in [9] and 212 ± 58 nM in [10]. For the same compound, in test [8], the “change in cAMP accumulation with increasing amounts of transiently transfected A2BAR” value is “significant increase in cAMP accumulation”. In [12], the “induction of cAMP accumulation” value is recorded as “concentration-dependently induced cAMP accumulation”.
As to `CCCn1c(=O)c2[nH]c(C3CCCC3)nc2n(CCC)c1=O` [DPCPX, 8-cyclopentyl-1,3-dipropylxanthine], in [2] (setting [28]), the “A2B antagonist IC50/KB” value is “DPCPX: 97.7 nM”.
Consider `CCCn1c(=O)c2[nH]c(-c3ccc(OCC(=O)Nc4ccc(C#N)cc4)cc3)nc2n(CCC)c1=O` [MRS1754], for which, in [6] (setting [29]), the “A2B antagonist IC50/KB” value is listed as “MRS1754: 665 nM”.
As to `C#CCn1c(=O)c2c(nc(C=Cc3cccc(OC)c3)n2C)n(CCCO)c1=O` [MSX-2, 3-(3-hydroxypropyl)-7-methyl-8-(m-methoxystyryl)-1-propargylxanthine], the Kb at human A2AAR [1] (read-out: KB-value ± SEM) was 14.5 ± 3.6 nM. For the same compound, the Ki on human A2BAR [13] is over 1000 nM; on human A2AAR [14] (ref [13]) it was 2.03 nM; on human A2AAR [15], 5 ± 0.6 nM.
Take `CCCn1c(=O)[nH]c2nc(-c3ccc(S(=O)(=O)N4CCN(c5ccc(Cl)cc5)CC4)cc3)[nH]c2c1=O` [PSB-603, 8-(4-(4-(4-chlorophenyl)-piperazine-1-sulfonyl)phenyl)-1-propylxanthine]: the Kb at human A2BAR [16] is 0.358 nM; in test [17], 0.871 nM; in test [7] (versus BAY60-6583, ref Wei Q, read-out: A2B antagonist KB), 1 nM. The Ki on human A2AAR [14] (ref [12]) was over 10000 nM; in test [9] it was 1.43 ± 0.58 nM; in test [10] it was 1.43 ± 0.73 nM.
In the case of `Nc1nc2c(cnn2CCc2ccccc2)c2nc(-c3ccco3)nn12` [SCH58261], the “block of NECA-induced increase in coronary flow” value in test [18] is “blocked NECA-induced increase in coronary flow to a higher degree in KO than in WT mice”. The “A2A antagonist IC50/KB” value in [6] (setting [29]) is on record as “SCH58261:405 nM”.
In the case of `CCNC(=O)[C@H]1O[C@@H](n2cnc3c(N)nc(NCCc4ccc(CCC(=O)O)cc4)nc32)[C@H](O)[C@@H]1O` [[³H]CGS-21680], the “KD ± SEM” value in test [19] was “No binding”.
With `CCCn1c(=O)[nH]c2nc(-c3ccc(S(=O)(=O)N4CCN(c5ccc(Cl)cc5)CC4)cc3)[nH]c2c1=O` [[³H]PSB-603], the “KD ± SEM” value at human A2AAR [20] was “no high-affinity binding”; at HA-tagged human A2AAR, “no high-affinity binding”; in test [19], “no high-affinity binding”; in [21], “high affinity binding”; in test [25], “High affinity binding”. Also, the Kd (commonly the equilibrium constant for the complex coming apart) is 2.09 ± 0.72 nM in test [21] (read-out: KD ± SEM); 0.403 ± 0.188 nM at human A2BAR [22]; 2.49 ± 1.39 nM in test [23]; 0.241 ± 0.108 nM in test [24]; 0.68 ± 0.242 nM in [25] (read-out: KD ± SEM).
With `Nc1ncnc2c1ncn2[C@@H]1O[C@H](CO)[C@@H](O)[C@H]1O` [adenosine], the EC50 was 65000 nM in [2] (setting [28]) and 2510 nM in the test with HEK-A2B cells, A2B ≥ A2A (setting [27]).
